Assay results published in US12577245B2, “Sulfonyl benzamide derivatives as Bcl-2 inhibitors” (ASCENTAGE PHARMA (SUZHOU) CO., LTD., priority 2021, dated 2026).

How the values were obtained:
RS4; 11Bcl-2-D103E cells = assay: CellTiter-Glo (CTG) cell viability assay in RS4;11-BCL2-D103E cells; format: cell-based; conditions: 10% FBS, 3 days
Method: (§1) RS4; 11Bcl-2-G101V, RS4; 11Bcl-2-D103E, RS4; 11Bcl-2-V156D and RS4; 11Bcl-2-G101V-D103E cells were obtained from Cobioer Biosciences. Cells were maintained in the RPMI-1640 medium with 10% FBS, 1% P/S and puromycin (1 μg/mL) at 37° C. and an atmosphere of 5% CO2.
(§2) • The effect of representative Compounds of the Disclosure on cell viability was determined using CellTiter-Glo® (CTG) luminescent cell viability assay (Promega, USA) according to the manufacturer's instructions. 95 μL of cell suspension (10000 cells/well) in culture medium were seeded into 96-well plates and cultured 4 hours. Each tested compound was serially diluted in blank culture medium, and 5 μL of the compound dilution was added to the corresponding well of the cell plate. After the addition of the tested compound, the cells were incubated at 37° C. in an atmosphere of 5% CO2 for 3 days. At the end of 3 days, 30 μL of CTG solution was added to each well of the plate and mix contents for 2 minutes on an orbital shaker. Allow the plate to incubate at room temperature for 15 mins to stabilize signal and record RLU on the Biotek plate reader. The readings were normalized to the vehicle cells, and the IC50 was calculated using GraphPad Prism 8 software.

MV-4-11 cells = assay: CCK-8 cell viability assay in MV-4-11 cells; format: cell-based; conditions: 10% FBS, 3 days
Outline: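 MV-4-11 cells (20000/well) were exposed to serially diluted compound for 3 days at 37 °C. Viability was then measured with CCK-8 (1–4 h, absorbance 450 nm). IC50 was derived from readings normalized to vehicle.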

RS4; 11Bcl-2-G101V cells = assay: CellTiter-Glo (CTG) cell viability assay in RS4;11-Bcl-2-G101V cells; format: cell-based; conditions: 10% FBS, 3 days
Outline: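 Engineered RS4;11 lines carrying Bcl-2 mutants, 10000 cells/well in RPMI-1640 with 10% FBS, exposed to serially diluted compound for 3 days at 37 °C, 5% CO2. Viability read by CellTiter-Glo luminescence, normalized to vehicle; IC50 calculated.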

RS4; 11Bcl-2-V156D cells = assay: CellTiter-Glo (CTG) cell viability assay in RS4;11-BCL2-V156D cells; format: cell-based; conditions: 10% FBS, 3 days
Method: as §1, §2

Bcl-2 WT = Bcl-2 WT (Homo sapiens, UniProt P10415); assay: Bcl-2 WT inhibition, fluorescence polarization (Flu-BIM tracer) binding assay; conditions: FP; 20 nM Bcl2, 5 nM Flu-BIM, 1 h incubation; read-out: Bcl-2 w.t. (FP)
Sequence of Bcl-2 WT (P10415 whole entry): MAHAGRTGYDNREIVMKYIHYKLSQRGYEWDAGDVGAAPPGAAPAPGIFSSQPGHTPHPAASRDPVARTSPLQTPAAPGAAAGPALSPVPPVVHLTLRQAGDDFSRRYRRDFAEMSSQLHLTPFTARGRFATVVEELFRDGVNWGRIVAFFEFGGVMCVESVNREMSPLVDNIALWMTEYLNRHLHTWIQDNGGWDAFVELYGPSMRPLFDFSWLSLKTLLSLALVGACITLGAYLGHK

SMILES | IC50 (RS4; 11Bcl-2-D103E cells; 72 h) [nM] | IC50 (MV-4-11 cells; Homo sapiens, MV4-11, 72 h) [nM] | IC50 (RS4; 11Bcl-2-G101V cells; 72 h) [nM] | IC50 (RS4; 11Bcl-2-V156D cells; 72 h) [nM] | IC50 (RS4; 11Bcl-2-D103E cells) [nM] | IC50 (MV-4-11 cells) [nM] | IC50 (RS4; 11Bcl-2-G101V cells) [nM] | IC50 (RS4; 11Bcl-2-V156D cells) [nM] | IC50 (Bcl-2 WT) [nM]
CC1(C)CCC(CN2CCN(c3ccc(C(=O)NS(=O)(=O)c4ccc(NC[C@H]5CC[C@](C)(O)CC5)c([N+](=O)[O-])c4)c(Oc4cnc5[nH]ccc5c4)c3)CC2)=C(c2cc(-c3c(F)cc(C(C)(C)O)cc3F)cs2)C1 [Example 63, 2-((1H-pyrrolo[2,3-b]pyridin-5-yl)oxy)-4-(4-((2-(4-(2,6-difluoro-4-(2-hydroxypropan-2-yl)phenyl)thiophen-2-yl)-4,4-dimethylcyclohex-1-en-1-yl)methyl)piperazin-1-yl)-N-((4-((((1r,4r)-4-hydroxy-4-methylcyclohexyl)methyl)amino)-3-nitrophenyl)sulfonyl)benzamide] | 183 | 9 | 14 | 19 | – | – | – | – | 16.3
C[C@@H](O)c1cc(F)c(-c2csc(C3=C(CN4CCN(c5ccc(C(=O)NS(=O)(=O)c6ccc(NC[C@H]7CC[C@](C)(O)CC7)c([N+](=O)[O-])c6)c(Oc6cnc7[nH]ccc7c6)c5)CC4)CCC(C)(C)C3)c2)c(F)c1 [Example 83, 2-((1H-pyrrolo[2,3-b]pyridin-5-yl)oxy)-4-(4-((2-(4-(2,6-difluoro-4-((R)-1-hydroxyethyl)phenyl)thiophen-2-yl)-4,4-dimethylcyclohex-1-en-1-yl)methyl)piperazin-1-yl)-N-((4-((((1r,4r)-4-hydroxy-4-methylcyclohexyl)methyl)amino)-3-nitrophenyl)sulfonyl)benzamide] | 48 | 2 | 20 | 8 | – | – | – | – | –
C[C@H](O)c1cc(F)c(-c2csc(C3=C(CN4CCN(c5ccc(C(=O)NS(=O)(=O)c6ccc(NC[C@H]7CC[C@](C)(O)CC7)c([N+](=O)[O-])c6)c(Oc6cnc7[nH]ccc7c6)c5)CC4)CCC(C)(C)C3)c2)c(F)c1 [Example 84, 2-((1H-pyrrolo[2,3-b]pyridin-5-yl)oxy)-4-(4-((2-(4-(2,6-difluoro-4-((S)-1-hydroxyethyl)phenyl)thiophen-2-yl)-4,4-dimethylcyclohex-1-en-1-yl)methyl)piperazin-1-yl)-N-((4-((((1r,4r)-4-hydroxy-4-methylcyclohexyl)methyl)amino)-3-nitrophenyl)sulfonyl)benzamide] | 98 | 7 | 70 | 8 | – | – | – | – | –

Second part, led by results:

IC50 (RS4; 11Bcl-2-D103E cells; 72 h) [nM] | IC50 (MV-4-11 cells; Homo sapiens, MV4-11, 72 h) [nM] | IC50 (RS4; 11Bcl-2-G101V cells; 72 h) [nM] | IC50 (RS4; 11Bcl-2-V156D cells; 72 h) [nM] | IC50 (RS4; 11Bcl-2-D103E cells) [nM] | IC50 (MV-4-11 cells) [nM] | IC50 (RS4; 11Bcl-2-G101V cells) [nM] | IC50 (RS4; 11Bcl-2-V156D cells) [nM] | SMILES | IC50 (Bcl-2 WT) [nM]
1510 | 38 | 2690 | 671 | – | – | – | – | CC1(C)CCC(CN2CCN(c3ccc(C(=O)NS(=O)(=O)c4ccc(NCC5CCOCC5)c([N+](=O)[O-])c4)c(Oc4cnc5[nH]ccc5c4)c3)CC2)=C(c2ccc(Cl)cc2)C1 [ABT-199, Venetoclax, reference compound] | –
– | – | – | – | 516 | 34 | 2430 | 324 | O=C(NS(=O)(=O)c1ccc(NC[C@H]2COCCO2)c([N+](=O)[O-])c1)c1ccc(N2CCN(CC3=C(c4ccc(Cl)cc4)CC4(CCC4)CC3)CC2)cc1Oc1cnc2[nH]ccc2c1 [APG-2575] | –
